Laboratory results reported in PMC6151865, “Targeting protein biotinylation enhances tuberculosis chemotherapy” (Science Translational Medicine, 2018).
Entries after “also recorded” stand apart in the source; their conditions may differ.

How the values were obtained:
[1] = test system: Mtb carrying an Rv3406 overexpression plasmid (pGMEH-Ptb38-rv3406); assay type: cell-based, Mycobacterium tuberculosis
[2] = test system: Mtb mutant bioA TetON-1 strain; assay type: cell-based, Mycobacterium tuberculosis

SMILES	resistance relative to wild-type Mtb [1] [fold]	sensitivity of bioA TetON-1 compared to wild-type Mtb [2]
Nc1ncnc2c1ncn2[C@@H]1O[C@H](CNS(=O)(=O)NC(=O)CCCC[C@@H]2SC[C@@H]3NC(=O)N[C@@H]32)[C@@H](O)[C@H]1O [Bio-AMS, 5′-[N-(d-biotinoyl)sulfamoyl]amino-5′-deoxyadenosine]	64	–
CO[C@H]1/C=C/O[C@@]2(C)Oc3c(C)c(O)c4c(O)c(c(/C=N/N5CCN(C)CC5)c(O)c4c3C2=O)NC(=O)/C(C)=C\C=C\[C@H](C)[C@H](O)[C@@H](C)[C@@H](O)[C@@H](C)[C@H](OC(C)=O)[C@@H]1C [rifampicin]	–	more sensitive than wild-type Mtb; also recorded: more resistant than wild-type Mtb
